# Test results reported in PMC4795541, “A Rapid and Quantitative Flow Cytometry Method for the Analysis of Membrane Disruptive Antimicrobial Activity” (PLoS ONE, 2016).
# Read-outs that look alike come from different tables or passages of the source. Marks after values point to notes of the source that are not given here. Where no end group is shown, it is not given here.
# Columns and labels:
# [1] = system: S. aureus (MRSA) ATCC 43300
# From the text: (§1) The bacterial strains; Fusobacterium nucleatum ATCC 25586, Streptococcus mutans Ingbritt, Staphylococcus aureus (MSSA) ATCC 29213; Staphylococcus aureus (MRSA) ATCC 43300; Enterococcus faecalis ATCC 29212; Enterobacter aerogenes ATCC 13048; Pseudomonas aeruginosa strain PAO1-LAC, ATCC 47085; Klebsiella pneumoniae ATCC 13883; Acinetobacter baumannii strain 2208, ATCC 19606; Escherichia coli ATCC 25922 lyophilised or glycerol stocks were obtained from the culture collection of the Oral Health Cooperative Research Centre, The Melbourne Dental School, University of Melbourne, Australia. These strains were selected for this study as they are widely used in antimicrobial studies and are considered to be important pathogens and major targets for antibiotic resistant studies. Bacteria were grown aerobically and maintained by passage at ambient temperature (E. coli, K. pneumoniae, A. baumannii and S. aureus strains) or at 37°C (P. aeruginosa, E. faecalis and E. aerogenes) on horse blood agar (10% v/v defibrinated horse blood, 4.4% w/v Oxoid Blood Agar Base No. 2). S. mutans and F. nucleatum were grown anaerobically (MK3 anaerobic workstation, Don Whitley Scientific Limited, England) and maintained by passage at 37°C on Todd Hewitt agar (3.6% w/v Oxoid Todd-Hewitt Broth, 1.5% w/v sucrose, 1.5% w/v BactoTM Agar, 0.8% w/v Oxoid Yeast Extract) or horse blood agar, respectively. For the antimicrobial peptide assays a 20 mL starter culture was produced by taking single colonies from blood or Todd Hewitt agar plates, respectively, to inoculate either: Luria Broth (LB; 1% w/v BactoTM Tryptone, 1% w/v NaCl, 0.5% w/v Oxoid Yeast Extract, pH 7.5, Thermo Scientific Pty, Ltd, Sydney, Australia) for bacteria; E. coli, K. pneumoniae, P. aeruginosa, A. baumannii, E. faecalis, E. aerogenes and S. aureus which were grown aerobically at 37°C, or Todd Hewitt broth (3.6% w/v Oxoid Todd-Hewitt Broth, 1.5% w/v sucrose, 0.8% w/v Oxoid Yeast 9 Extract) for S. mutans, or Brain Heart Infusion broth (BHI; 3.7% w/v Oxoid BHI, 0.05% w/v L-cysteine) for F. nucleatum which were both grown anaerobically at 37°C. After overnight incubation, 0.5–2.0 mL of the starter culture was used to inoculate the appropriate fresh broth (200 mL) and growth monitored at 650 nm using a spectrophotometer (model 275E; Perkin-Elmer, Sydney, Australia) with culture purity checked by microscopic examination and culture. Bacteria were harvested during late exponential growth phase and viability and bacteria/mL determined using a BacLight viability kit (Invitrogen, Sydney, Australia) and a Quanta SC-MPL flow cytometer (Beckman coulter Pty, Ltd, Sydney, Australia).
# (§2) Antibacterial assays were undertaken to determinate the minimum inhibitory concentration (MIC), minimum bactericidal concentration (MBC) and minimum membrane disruptive concentration (MDC) of each of the antimicrobial peptides (AMP) and AMP analogues (S1 Table). For each bacterim a stock solution (2.5 × 10^6 cells/mL) in the respective media was made and an aliquot incubated with AMPs within 15 minutes from viable cell count and stock preparation. All AMPs were dissolved in DMSO and a 500 μM stock solution prepared by adding the respective media and serial dilutions (250–0.244 μM) of the AMP in media (100 μL/well) made just prior addition of bacteria. […] One hundred microliter aliquots of the bacterial stock solution (2.5 × 10^5 cells/well) were added to the AMP serial dilutions and incubated at 37°C for 90 min. Assay preparation and incubations were conducted in aerobic or anaerobic conditions dependent on the bacteria. Bacteria were also incubated in the absence of AMP to serve as a growth control for the assay. After the 90 minute incubation period the antimicrobial activity (MIC, MBC and MDC) was determined as follows;
# (§3) For MIC the CLSI broth microdilution assay was followed as we have previously described.
# E. aerogenes ATCC 13048 [2] = system: E. aerogenes ATCC 13048
# From the text: as §1, §2, §3
# K. pneumoniae ATCC 13883 [3] = system: K. pneumoniae ATCC 13883
# From the text: as §1, §2, §3
# E. faecalis ATCC 29212 [4] = system: E. faecalis ATCC 29212
# From the text: as §1, §2, §3
# [5] = system: A. baumannii strain 2208, ATCC 19606
# From the text: as §1, §2, §3
# [6] = system: S. aureus (MSSA) ATCC 29213
# From the text: as §1, §2, §3
# E. coli ATCC 25922 [7] = system: E. coli ATCC 25922
# From the text: as §1, §2, §3
# [8] = system: P. aeruginosa strain PAO1-LAC, ATCC 47085
# From the text: as §1, §2, §3
# [9] = system: S. aureus (MRSA) ATCC 43300; remark: listed apart in the source
# From the text: as §1, §2
# (§4) For determination of MBC, the CLSI protocol was followed, with the modifications being that due to the rapid action of the AMPs the assay incubation time was shortened from 16–20 hours to 90 minutes.
# E. aerogenes ATCC 13048 [10] = system: E. aerogenes ATCC 13048; remark: listed apart in the source
# From the text: as §1, §2, §4
# K. pneumoniae ATCC 13883 [11] = system: K. pneumoniae ATCC 13883; remark: listed apart in the source
# From the text: as §1, §2, §4
# E. faecalis ATCC 29212 [12] = system: E. faecalis ATCC 29212; remark: listed apart in the source
# From the text: as §1, §2, §4
# [13] = system: A. baumannii strain 2208, ATCC 19606; remark: listed apart in the source
# From the text: as §1, §2, §4
# [14] = system: S. aureus (MSSA) ATCC 29213; remark: listed apart in the source
# From the text: as §1, §2, §4
# E. coli ATCC 25922 [15] = system: E. coli ATCC 25922; remark: listed apart in the source
# From the text: as §1, §2, §4
# [16] = system: P. aeruginosa strain PAO1-LAC, ATCC 47085; remark: listed apart in the source
# From the text: as §1, §2, §4
# S. mutans Ingbritt [17] = conditions: Ingbritt, 24 h
# From the text: as §1, §2, §3
# F. nucleatum ATCC 25586 [18] = conditions: ATCC 25586, 24 h
# From the text: as §1, §2, §3
# S. mutans Ingbritt [19] = conditions: Ingbritt
# From the text: as §1, §2, §4
# F. nucleatum ATCC 25586 [20] = conditions: ATCC 25586
# From the text: as §1, §2, §4
# [21] = S. aureus (MRSA) ATCC 43300, 90 min incubation, average of 3 assays ± SD
# [22] = E. aerogenes ATCC 13048, 90 min incubation, average of 3 assays ± SD
# [23] = K. pneumoniae ATCC 13883, 90 min incubation, average of 3 assays ± SD
# [24] = E. faecalis ATCC 29212, 90 min incubation, average of 3 assays ± SD
# [25] = A. baumannii strain 2208, ATCC 19606, 90 min incubation, average of 3 assays ± SD
# [26] = S. aureus (MSSA) ATCC 29213, 90 min incubation, average of 3 assays ± SD
# [27] = E. coli ATCC 25922, 90 min incubation, average of 3 assays ± SD
# [28] = P. aeruginosa PAO1-LAC, ATCC 47085, 90 min incubation, average of 3 assays ± SD
substance,measurement,setting,value
GLLSVLGSVAKHVLPHVVPVIAEHL-NH2 [Caerin 1.1],MIC,[1]; [21],4.9±0.4^e μM
same,MIC,E. aerogenes ATCC 13048 [2]; [22],40.0 ± 8.2 µM
same,MIC,K. pneumoniae ATCC 13883 [3]; [23],14.6 ± 5.1 µM
same,MIC,E. faecalis ATCC 29212 [4]; [24],27.1 ± 15.0 µM
same,MIC,[5]; [25],3.1 ± 0.4 µM
same,MIC,[6]; [26],5.5±0.2^e μM
same,MIC,E. coli ATCC 25922 [7]; [27],8.45±0.2^e μM
same,MIC,[8]; [28],39.3 ± 21.4 µM
same,MBC,[9]; [21],13.9 ± 2.4 µM
same,MBC,E. aerogenes ATCC 13048 [10]; [22],51.1 ± 6.3 µM
same,MBC,K. pneumoniae ATCC 13883 [11]; [23],20.0 ± 7.1 µM
same,MBC,E. faecalis ATCC 29212 [12]; [24],17.5 ± 10.6 µM
same,MBC,[13]; [25],3.0 ± 1.0 µM
same,MBC,[14]; [26],9.9 ± 2.3 µM
same,MBC,E. coli ATCC 25922 [15]; [27],15.6 ± 0.4 µM
same,MBC,[16]; [28],51.4 ± 27.1 µM
KNLRRIIRKIIHIIKKYG [Ovispirin],MIC,"[1]; ATCC 43300, 24 h",>250 µM
same,MIC,"E. aerogenes ATCC 13048 [2]; ATCC 13048, 24 h",45.9±13.8^e μM
same,MIC,S. mutans Ingbritt [17],16.5 ± 1.7 µM
same,MIC,"K. pneumoniae ATCC 13883 [3]; ATCC 13883, 24 h",7.7±0.1^e μM
same,MIC,"E. faecalis ATCC 29212 [4]; ATCC 29212, 24 h",78.8 ± 40.7 µM
same,MIC,"[5]; ATCC 19606, 24 h",2.6 ± 1.1 µM
same,MIC,"[6]; ATCC 29213, 24 h",138.5 ± 24.5 µM
same,MIC,F. nucleatum ATCC 25586 [18],4.2 ± 2.9 µM
same,MIC,"E. coli ATCC 25922 [7]; ATCC 25922, 24 h",9.6 ± 3.9 µM
same,MIC,"[8]; PAO1, 24 h",90.6 ± 7.5 µM
same,MBC,[9]; ATCC 43300,>250 µM
same,MBC,E. aerogenes ATCC 13048 [10]; ATCC 13048,135.2 ± 26.3 µM
same,MBC,S. mutans Ingbritt [19],11.3 ± 5.3 µM
same,MBC,K. pneumoniae ATCC 13883 [11]; ATCC 13883,21.7 ± 3.7 µM
same,MBC,E. faecalis ATCC 29212 [12]; ATCC 29212,72.4 ± 13.7 µM
same,MBC,[13]; ATCC 19606,2.0 ± 1.0 µM
same,MBC,[14]; ATCC 29213,139.7 ± 25.8 µM
same,MBC,F. nucleatum ATCC 25586 [20],4.7 ± 3.5 µM
same,MBC,E. coli ATCC 25922 [15]; ATCC 25922,8.5 ± 0.7 µM
same,MBC,[16]; PAO1,95.9 ± 9.8 µM
